Reference: publication PMC5548886 (Cancer Medicine, 2017)

Experiments:
[1] = system: locally advanced or metastatic melanoma; experiment: Antitumor response by RECIST 1.0; format: in vivo, human
Method: Medical history and demographics were collected at screening. The safety of study medication was evaluated on the basis of rate, type, severity graded in accordance with NCI CTCAE version 3.0. Safety assessments consisted of collecting all AEs, serious adverse events (SAEs) with their severity and relationship with study drug, and pregnancies. They included the regular monitoring of hematology, blood chemistry and urine performed at the study center/central laboratory and regular assessments of vital signs, physical condition, body weight, performance status, and cardiac data (i.e. electrocardiogram (ECG)/echocardiogram (ECHO)). Abnormalities in clinical laboratory tests that were considered clinically significant by the Investigator were recorded on the AE CRF. Dose‐limiting toxicities (DLTs) were defined for various organ systems and other clinically relevant adverse effects (Table S1). The DLT window was the first cycle while AEs were captured for the entire course of treatment. Evaluation of tumor response was conducted at Baseline, and at the end of every 8 weeks of treatment. Response was assessed using the Response Evaluation Criteria in Solid Tumors (RECIST) 1.0. […] All patients discontinuing from the study for progressive disease were to have their disease progression documented by radiologic evaluation.

wild-type BRAF protein = details: read-out: EC50 for the wild-type BRAF protein; preclinical; cited from earlier work
[2] = 33 patients with BRAF-WT melanomas
[3] = BRAF mutation, All patients, 33 evaluable
[4] = BRAF mutation, DL 5, 8 evaluable
[5] = BRAF mutation, DL 6, 10 evaluable
[6] = BRAF mutation, DLs 1 to 4, 6 evaluable
[7] = BRAF mutation, DLs 7 and 7.1, 9 evaluable
[8] = BRAF unspecified/unknown, All patients, 5 evaluable
[9] = BRAF unspecified/unknown, DL 5, 0 evaluable
[10] = BRAF unspecified/unknown, DL 6, 2 evaluable
[11] = BRAF unspecified/unknown, DLs 1 to 4, 1 evaluable
[12] = BRAF unspecified/unknown, DLs 7 and 7.1, 2 evaluable
[13] = BRAF wild-type, All patients, 28 evaluable
[14] = BRAF wild-type, DL 5, 5 evaluable
[15] = BRAF wild-type, DL 6, 8 evaluable
[16] = BRAF wild-type, DLs 1 to 4, 8 evaluable
[17] = BRAF wild-type, DLs 7 and 7.1, 7 evaluable
[18] = Total, All patients, 66 evaluable
[19] = Total, DLs 1 to 4, 15 evaluable
[20] = Total, DLs 7 and 7.1, 18 evaluable

## Cn1c(Nc2ccc(C(F)(F)F)cc2)nc2cc(Oc3ccnc(-c4ncc(C(F)(F)F)[nH]4)c3)ccc21 [RAF265]
[1]; [2]
  number of CR: one
  number of PR: two
[1]; 39 patients with BRAF V600E mutation
  number of PR: Four
[1]; 66 evaluable patients
  number of complete responses (CR): one
  number of partial responses (PR): seven
[1]; 66 evaluable patients, all dose levels
  objective response rate (ORR), RECIST: […]
[1]; All patients, 66 evaluable
  Best response CR, PR or SD: 35 (53) n (%)
[1]; [3]
  Complete response (CR), best overall response: 0 n (%)
[1]; [4]
  Complete response (CR), best overall response: 0 n (%)
[1]; [5]
  Complete response (CR), best overall response: 0 n (%)
[1]; [6]
  Complete response (CR), best overall response: 0 n (%)
  Stable disease (SD), best overall response: 0 n (%)
[1]; [7]
  Complete response (CR), best overall response: 0 n (%)
  Partial response (PR), best overall response: 0 n (%)
[1]; [8]
  Complete response (CR), best overall response: 0 n (%)
[1]; [9]
  Complete response (CR), best overall response: 0 n (%)
  Partial response (PR), best overall response: 0 n (%)
  Progressive disease (PD), best overall response: 0 n (%)
  Stable disease (SD), best overall response: 0 n (%)
[1]; [10]
  Complete response (CR), best overall response: 0 n (%)
  Partial response (PR), best overall response: 0 n (%)
  Stable disease (SD), best overall response: 0 n (%)
[1]; [11]
  Complete response (CR), best overall response: 0 n (%)
  Partial response (PR), best overall response: 0 n (%)
  Progressive disease (PD), best overall response: 0 n (%)
[1]; [12]
  Complete response (CR), best overall response: 0 n (%)
  Stable disease (SD), best overall response: 0 n (%)
[1]; [13]
  Complete response (CR), best overall response: […]
  Progressive disease (PD), best overall response: […]
  Stable disease (SD), best overall response: […]
[1]; [14]
  Complete response (CR), best overall response: 0 n (%)
  Partial response (PR), best overall response: 0 n (%)
[1]; [15]
  Complete response (CR), best overall response: 0 n (%)
[1]; [16]
  Complete response (CR), best overall response: 0 n (%)
[1]; [17]
  Partial response (PR), best overall response: 0 n (%)
[1]; DL 5, 13 evaluable
  Best response CR or PR: […]
  Best response CR, PR or SD: […]
[1]; DL 6, 20 evaluable
  Best response CR or PR: […]
  Best response CR, PR or SD: […]
[1]; DLs 1 to 4, 15 evaluable
  Best response CR or PR: […]
  Best response CR, PR or SD: […]
[1]; DLs 7 and 7.1, 18 evaluable
  Best response CR or PR: […]
  Best response CR, PR or SD: […]
[1]; [18]
  Stable disease (SD), best overall response: 27 (40.9) n (%)
[1]; Total, DL 5, 13 evaluable
  Complete response (CR), best overall response: 0 n (%)
[1]; Total, DL 6, 20 evaluable
  Complete response (CR), best overall response: 0 n (%)
  Progressive disease (PD), best overall response: 9 (45) n (%)
  Stable disease (SD), best overall response: 9 (45) n (%)
[1]; [19]
  Complete response (CR), best overall response: 0 n (%)
[1]; [20]
  Complete response (CR), best overall response: […]
  Partial response (PR), best overall response: […]
  Progressive disease (PD), best overall response: […]
  Stable disease (SD), best overall response: […]
[1]; responders, range 1.4–51.7 months
  median duration of response: […]
[1]; unknown BRAF mutation status
  number of PR: one
wild-type BRAF protein
  EC50: […]
